In ChEMBL document CHEMBL6109104, “Synthesis and antibacterial evaluations of novel vancomycin analogues targeting bacteria membrane to combat Gram-negative infections” (Eur J Med Chem, 2025):
In brackets after ≈: the same amount, converted by molar mass. Activity calls are given as the source filed them. The calls are words filed in the database; no cut-off is given here.

Experiments:
Escherichia coli [1] = experiment: Antibacterial activity against Escherichia coli ATCC35150 incubated for 16 to 18 hrs by muller hinton broth based microplate reader analysis; format: functional; details: time 16-18 hrs
Acinetobacter baumannii [2] = experiment: Antibacterial activity against Acinetobacter baumannii ATCC17978 infected in neutropenic thigh infection Kunming mouse model assessed as reduction in bacterial load in thigh at 20 mg/kg, sc pretreated with bacteria for 2 hrs followed by compound addition and measured after 16 hrs; format: functional, organism-based
Escherichia coli [3] = experiment: Antibacterial activity against Escherichia coli ATCC25922 incubated for 16 to 18 hrs by muller hinton broth based microplate reader analysis; format: functional; details: time 16-18 hrs
Acinetobacter baumannii [4] = experiment: Antibacterial activity against Acinetobacter baumannii ATCC19606 incubated for 16 to 18 hrs by muller hinton broth based microplate reader analysis; format: functional; details: time 16-18 hrs
Acinetobacter baumannii [5] = experiment: Antibacterial activity against Acinetobacter baumannii ATCC17978 incubated for 16 to 18 hrs by muller hinton broth based microplate reader analysis; format: functional; details: time 16-18 hrs
HEK-293T [6] = experiment: Cytotoxicity against HEK293T cells at 64 ug/ml incubated for 72 hrs by MTT assay; format: toxicity, cell-based; details: human, dose 64 µg/ml
Cell membrane [7] = experiment: Disruption of cell membrane in Acinetobacter baumannii ATCC17978 assessed as increase in protein leakage incubated for 4 hrs by BCA assay
Cell membrane [8] = experiment: Disruption of cell membrane in Acinetobacter baumannii ATCC17978 assessed as increase in DNA leakage incubated for 4 hrs by microspectrophotometer analysis
Acinetobacter baumannii [9] = experiment: Antibacterial activity against Acinetobacter baumannii ATCC17978 assessed as bactericidal rate by measuring bacterial count at 4 times MIC incubated for 4 hrs by muller-hinton agar based time-kill kinetics assay relative to control; format: functional
[10] = Hemolytic activity in sheep RBC at 64 ug/ml incubated for 1 hrs by absorbance based analysis; format: toxicity, cell-based, Ovis aries; details: erythrocyte, dose 64 µg/ml
Staphylococcus aureus [11] = experiment: Antibacterial activity vancomycin-intermediate resistant Staphylococcus aureus incubated for 16 to 18 hrs by muller hinton broth based microplate reader analysis; format: functional; details: time 16-18 hrs
[12] = Toxicity in Kunming mouse infected with Acinetobacter baumannii ATCC17978 assessed as changed in body weight at 10 to 20 mg/kg; format: organism-based; details: in vivo, dose 10-20 mg/kg
Acinetobacter baumannii [13] = experiment: Antibacterial activity against Acinetobacter baumannii ATCC17978 infected in neutropenic thigh infection Kunming mouse model assessed as reduction in bacterial load in thigh at 10 to 20 mg/kg, sc pretreated with bacteria for 2 hrs followed by compound addition and measured after 16 hrs; format: functional, organism-based; details: dose 10-20 mg/kg
Staphylococcus aureus [14] = experiment: Antibacterial activity against methicillin-resistant Staphylococcus aureus USA300 incubated for 16 to 18 hrs by muller hinton broth based microplate reader analysis; format: functional; details: time 16-18 hrs
Cell membrane [15] = experiment: Induction of cell membrane disruption in Acinetobacter baumannii ATCC17978 assessed as increase in ROS level incubated for 30 mins by DCFH-DA probe based microplate reader analysis
Acinetobacter baumannii [16] = experiment: Antibacterial activity against Acinetobacter baumannii ATCC17978 incubated for 12 hrs and measured after 20 passages; format: functional, organism-based
Acinetobacter baumannii [17] = experiment: Antibacterial activity against Acinetobacter baumannii ATCC17978 assessed as bactericidal rate by measuring bacterial count at 8 times MIC incubated for 4 hrs by muller-hinton agar based time-kill kinetics assay; format: functional, organism-based
Acinetobacter baumannii [18] = experiment: Antibacterial activity against Acinetobacter baumannii ATCC17978 assessed as bactericidal rate by measuring bacterial count incubated for 6 hrs by muller-hinton agar based time-kill kinetics assay; format: functional, organism-based
Cell membrane [19] = experiment: Induction of cytoplasmic membrane permeabilization in Acinetobacter baumannii ATCC17978 assessed as increase in fluorescence intensity at 16 times MIC incubated for 10 mins by SYTOX green assay
Acinetobacter baumannii [20] = experiment: Antibacterial activity against Acinetobacter baumannii ATCC17978 infected in neutropenic thigh infection Kunming mouse model assessed as reduction in bacterial survival at 10 mg/kg, sc pretreated with bacteria for 2 hrs followed by compound addition and measured after 16 hrs; format: functional, organism-based
HEK-293T [21] = experiment: Cytotoxicity against HEK293T cells at 1.0 uM incubated for 72 hrs by MTT assay relative to control; format: toxicity, cell-based; details: human
HEK-293T [22] = experiment: Cytotoxicity against HEK293T cells at 0.5 uM incubated for 72 hrs by MTT assay relative to control; format: toxicity, cell-based; details: human

CN[C@H](CC(C)C)C(=O)N[C@H]1C(=O)N[C@@H](CC(N)=O)C(=O)N[C@H]2C(=O)N[C@H]3C(=O)N[C@H](C(=O)N[C@H](C(=O)O)c4cc(O)cc(O)c4-c4cc3ccc4O)[C@H](O)c3ccc(c(Cl)c3)Oc3cc2cc(c3O[C@@H]2O[C@H](CO)[C@@H](O)[C@H](O)[C@H]2O[C@H]2C[C@](C)(N)[C@H](O)[C@H](C)O2)Oc2ccc(cc2Cl)[C@H]1O [VANCOMYCIN]
MIC (Escherichia coli [1]): > 128 µg/mL | Activity (Acinetobacter baumannii [2]): inactive | MIC (Escherichia coli [3]): > 128 µg/mL | MIC (Acinetobacter baumannii [4]): > 128 µg/mL | MIC (Acinetobacter baumannii [5]): > 128 µg/mL

CCCCCCCCCCCC[N+]1(C)CCN(C(=O)[C@H]2NC(=O)[C@H]3NC(=O)[C@H](NC(=O)[C@@H]4NC(=O)[C@H](CC(N)=O)NC(=O)[C@H](NC(=O)[C@@H](CC(C)C)NC)[C@H](O)c5ccc(c(Cl)c5)Oc5cc4cc(c5O[C@@H]4O[C@H](CO)[C@@H](O)[C@H](O)[C@H]4O[C@H]4C[C@](C)(N)[C@H](O)[C@H](C)O4)Oc4ccc(cc4Cl)[C@H]3O)c3ccc(O)c(c3)-c3c(O)cc(O)cc32)CC1.[Br-] (stereo in doubt)
Activity (HEK-293T [6]): Non-toxic | Activity (Cell membrane [7]): Dose-dependent-effect | MIC (Escherichia coli [1]): 16 µg/mL | Activity (Cell membrane [8]): Dose-dependent-effect | Activity (Acinetobacter baumannii [9]): 100% | Activity [10]: Toxic | MIC (Escherichia coli [3]): 16 µg/mL | MIC (Staphylococcus aureus [11]): 8 µg/mL | Activity [12]: Non-toxic | Activity (Acinetobacter baumannii [13]): Active | MIC (Staphylococcus aureus [14]): 1 µg/mL | MIC (Acinetobacter baumannii [4]): 16 µg/mL | MIC (Acinetobacter baumannii [5]): 8 µg/mL | Activity (Cell membrane [15]): Active | Activity (Acinetobacter baumannii [16]): Active | Activity (Acinetobacter baumannii [17]): inactive | Activity (Acinetobacter baumannii [18]): Dose-dependent-effect | Activity (Cell membrane [19]): Active

O=C(O)c1cn(C2CC2)c2cc(N3CCNCC3)c(F)cc2c1=O [CIPROFLOXACIN]
MIC (Staphylococcus aureus [11]): 1 µg/mL (≈ 3.02 µM) | MIC (Staphylococcus aureus [14]): 0.25 µg/mL (≈ 0.754 µM) | MIC (Acinetobacter baumannii [4]): 1 µg/mL (≈ 3.02 µM) | MIC (Acinetobacter baumannii [5]): 0.5 µg/mL (≈ 1.51 µM) | Activity (Acinetobacter baumannii [17]): Active | Activity (Acinetobacter baumannii [20]): Active

CCCCCCCCCC[N+]1(C)CCN(C(=O)c2ccc(CN[C@@]3(C)C[C@H](O[C@H]4[C@H](Oc5c6cc7cc5Oc5ccc(cc5Cl)[C@@H](O)[C@@H](NC(=O)[C@@H](CC(C)C)NC)C(=O)N[C@@H](CC(N)=O)C(=O)N[C@H]7C(=O)N[C@H]5C(=O)N[C@H](C(=O)N[C@H](C(=O)O)c7cc(O)cc(O)c7-c7cc5ccc7O)[C@H](O)c5ccc(c(Cl)c5)O6)O[C@H](CO)[C@@H](O)[C@@H]4O)O[C@@H](C)[C@H]3O)cc2)CC1.[Br-]
MIC (Escherichia coli [1]): 64 µg/mL | MIC (Escherichia coli [3]): 64 µg/mL | MIC (Staphylococcus aureus [11]): 64 µg/mL | MIC (Staphylococcus aureus [14]): 1 µg/mL | MIC (Acinetobacter baumannii [4]): 64 µg/mL | MIC (Acinetobacter baumannii [5]): > 128 µg/mL

CN[C@H](CC(C)C)C(=O)N[C@H]1C(=O)N[C@@H](CC(N)=O)C(=O)N[C@H]2C(=O)N[C@H]3C(=O)N[C@H](C(=O)N[C@H](C(=O)N4CCN(C)CC4)c4cc(O)cc(O)c4-c4cc3ccc4O)[C@H](O)c3ccc(c(Cl)c3)Oc3cc2cc(c3O[C@@H]2O[C@H](CO)[C@@H](O)[C@H](O)[C@H]2O[C@H]2C[C@](C)(N)[C@H](O)[C@H](C)O2)Oc2ccc(cc2Cl)[C@H]1O (stereo in doubt)
MIC (Escherichia coli [1]): > 128 µg/mL | MIC (Escherichia coli [3]): > 128 µg/mL | MIC (Staphylococcus aureus [11]): > 128 µg/mL | MIC (Staphylococcus aureus [14]): 4 µg/mL (≈ 2.61 µM) | MIC (Acinetobacter baumannii [4]): > 128 µg/mL | MIC (Acinetobacter baumannii [5]): > 128 µg/mL

CN[C@H](CC(C)C)C(=O)N[C@H]1C(=O)N[C@@H](CC(N)=O)C(=O)N[C@H]2C(=O)N[C@H]3C(=O)N[C@H](C(=O)N[C@H](C(=O)O)c4cc(O)cc(O)c4-c4cc3ccc4O)[C@H](O)c3ccc(c(Cl)c3)Oc3cc2cc(c3O[C@@H]2O[C@H](CO)[C@@H](O)[C@H](O)[C@H]2O[C@H]2C[C@](C)(NC(=O)CCCCCCCCCCC[n+]3cccc(C(C)=O)c3)[C@H](O)[C@H](C)O2)Oc2ccc(cc2Cl)[C@H]1O.[Br-]
MIC (Escherichia coli [1]): > 128 µg/mL | MIC (Escherichia coli [3]): > 128 µg/mL | MIC (Staphylococcus aureus [11]): 64 µg/mL | MIC (Staphylococcus aureus [14]): 4 µg/mL | MIC (Acinetobacter baumannii [4]): > 128 µg/mL | MIC (Acinetobacter baumannii [5]): > 128 µg/mL

CCCCCCCCCCCC[n+]1ccc(C(=O)NCCNC(=O)[C@@H]2NC(=O)[C@H]3NC(=O)[C@H](NC(=O)[C@@H]4NC(=O)[C@H](CC(N)=O)NC(=O)[C@H](NC(=O)[C@@H](CC(C)C)NC)[C@H](O)c5ccc(c(Cl)c5)Oc5cc4cc(c5O[C@@H]4O[C@H](CO)[C@@H](O)[C@H](O)[C@H]4O[C@H]4C[C@](C)(N)[C@H](O)[C@H](C)O4)Oc4ccc(cc4Cl)[C@H]3O)c3ccc(O)c(c3)-c3c(O)cc(O)cc32)cc1.[Br-] (stereo in doubt)
MIC (Escherichia coli [1]): > 128 µg/mL | MIC (Escherichia coli [3]): > 128 µg/mL | MIC (Staphylococcus aureus [11]): 64 µg/mL | MIC (Staphylococcus aureus [14]): 2 µg/mL | MIC (Acinetobacter baumannii [4]): 16 µg/mL | MIC (Acinetobacter baumannii [5]): 64 µg/mL

CN[C@H](CC(C)C)C(=O)N[C@H]1C(=O)N[C@@H](CC(N)=O)C(=O)N[C@H]2C(=O)N[C@H]3C(=O)N[C@H](C(=O)N[C@H](C(=O)O)c4cc(O)cc(O)c4-c4cc3ccc4O)[C@H](O)c3ccc(c(Cl)c3)Oc3cc2cc(c3O[C@@H]2O[C@H](CO)[C@@H](O)[C@H](O)[C@H]2O[C@H]2C[C@](C)(NC(=O)CCCCCCCCCCC[n+]3cccc(O)c3)[C@H](O)[C@H](C)O2)Oc2ccc(cc2Cl)[C@H]1O.[Br-]
MIC (Escherichia coli [1]): > 128 µg/mL | MIC (Escherichia coli [3]): > 128 µg/mL | MIC (Staphylococcus aureus [11]): 64 µg/mL | MIC (Staphylococcus aureus [14]): 8 µg/mL | MIC (Acinetobacter baumannii [4]): > 128 µg/mL | MIC (Acinetobacter baumannii [5]): > 128 µg/mL

COc1cccc2c1C(=O)c1c(O)c3c(c(O)c1C2=O)C[C@@](O)(C(=O)CO)C[C@@H]3O[C@H]1C[C@H](N)[C@H](O)[C@H](C)O1 [DOXORUBICIN]
Activity (HEK-293T [21]): 85.6% | Activity (HEK-293T [22]): 27.3%
